Source: patent publication US20230093099A1, “COMPOUNDS AND METHODS OF TREATING CANCERS” (CULLGEN (SHANGHAI), INC., priority 2019, published 2023)

These molecules were tested on RS4;11 cells (assay: Cell viability assay (CellTiter-Glo) in RS4;11 cells). Details: Homo sapiens, 72 h; RS4;11 ALL cells treated for three days; read-out: cell viability inhibition IC50.
Type: cell-based
Method in brief: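 RS4;11 cells seeded at 5000 per well, exposed for 3 days to 8- or 12-point 3-fold serial dilutions. Viability read by CellTiter-Glo luminescence; IC50 fitted by nonlinear least-squares regression.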
`CS(=O)(=O)c1ccc(-c2cccc3nc(Nc4ccc(N5CCN(C(=O)CCCCCCCNc6ccc7c(c6)C(=O)N(C6CCC(=O)NC6=O)C7=O)CC5)cc4)nn23)cc1` (stereo not drawn) [JA-203] was tested, and the IC50 was less than 100 nM.

Same assay, conditions: Homo sapiens, 72 h; RS4;11 cells; cell viability, 3 days, CellTiter-Glo; read-out: IC50
With `Cc1ncsc1-c1ccc(CNC(=O)[C@@H]2C[C@@H](O)CN2C(=O)[C@@H](NC(=O)CCCCCNC(=O)CN2CCN(c3ccc(Nc4nc5cccc(-c6ccc(S(C)(=O)=O)cc6)n5n4)cc3)CC2)C(C)(C)C)cc1` [JA-122, (2S,4R)-1-((S)-3,3-Dimethyl-2-(6-(2-(4-(4-((5-(4-(methylsulfonyl)phenyl)-[1,2,4]triazolo[1,5-a]pyridin-2-yl)amino)phenyl)piperazin-1-yl)acetamido)hexanamido)butanoyl)-4-hydroxy-N-(4-(4-methylthiazol-5-yl)benzyl)pyrrolidine-2-carboxamide] the IC50 was greater than 10000 nM. For `Cc1ncsc1-c1ccc(CNC(=O)[C@@H]2C[C@@H](O)CN2C(=O)[C@@H](NC(=O)CCCCCCCCCCNC(=O)CN2CCC(n3cc(-c4cnc5cccc(-c6cc(F)c(CN7CCOCC7)c(F)c6)c5n4)cn3)CC2)C(C)(C)C)cc1` [JA-150, (2S,4R)-1-((S)-2-(11-(2-(4-(4-(8-(3,5-Difluoro-4-(morpholinomethyl)phenyl)quinoxalin-2-yl)-1H-pyrazol-1-yl)piperidin-1-yl)acetamido)undecanamido)-3,3-dimethylbutanoyl)-4-hydroxy-N-(4-(4-methylthiazol-5-yl)benzyl)pyrrolidine-2-carboxamide], the IC50 was 2250 nM. In the case of `Cc1ncsc1-c1ccc(CNC(=O)[C@@H]2C[C@@H](O)CN2C(=O)[C@@H](NC(=O)CCC(=O)N2CCC(n3cc(-c4cnc5cccc(-c6cc(F)c(CN7CCOCC7)c(F)c6)c5n4)cn3)CC2)C(C)(C)C)cc1` [JA-060, (2S,4R)-1-[(2S)-2-[[4-[4-[4-[8-[3,5-Difluoro-4-(morpholinomethyl)phenyl]quinoxalin-2-yl]pyrazol-1-yl]-1-piperidyl]-4-oxo-butanoyl]amino]-3,3-dimethyl-butanoyl]-4-hydroxy-N-[[4-(4-methylthiazol-5-yl)phenyl]methyl]pyrrolidine-2-carboxamide], the IC50 is reported as greater than 10000 nM. For `CS(=O)(=O)c1ccc(-c2cccc3nc(Nc4ccc(N5CCN(CC(=O)NCCCCNc6ccc7c(c6)C(=O)N(C6CCC(=O)NC6=O)C7=O)CC5)cc4)nn23)cc1` (stereo not drawn) [JA-205, N-(4-((2-(2,6-Dioxopiperidin-3-yl)-1,3-dioxoisoindolin-5-yl)amino)butyl)-2-(4-(4-((5-(4-(methylsulfonyl)phenyl)-[1,2,4]triazolo[1,5-a]pyridin-2-yl)amino)phenyl)piperazin-1-yl)acetamide], the IC50 was 676 nM. `CS(=O)(=O)c1ccc(-c2cccc3nc(Nc4ccc(N5CCN(C(=O)CCCCCCCNc6ccc7c(c6)C(=O)N(C6CCC(=O)NC6=O)C7=O)CC5)cc4)nn23)cc1` (stereo not drawn) [JA-203] gave an IC50 of 22.8 nM. In the case of `O=C(CN1CCC(n2cc(-c3cnc4cccc(-c5cc(F)c(CN6CCOCC6)c(F)c5)c4n3)cn2)CC1)NCCCCCCCCNc1cccc2c1C(=O)N(C1CCC(=O)NC1=O)C2=O` (stereo not drawn) [JA-149, 2-(4-(4-(8-(3,5-Difluoro-4-(morpholinomethyl)phenyl)quinoxalin-2-yl)-1H-pyrazol-1-yl)piperidin-1-yl)-N-(8-((2-(2,6-dioxopiperidin-3-yl)-1,3-dioxoisoindolin-4-yl)amino)octyl)acetamide], the IC50 is reported as greater than 10000 nM. `O=C1CCC(N2C(=O)c3ccc(NCCOCCOCCC(=O)N4CCC(n5cc(-c6cnc7cccc(-c8cc(F)c(CN9CCOCC9)c(F)c8)c7n6)cn5)CC4)cc3C2=O)C(=O)N1` (stereo not drawn) [JA-183, 5-((2-(2-(3-(4-(4-(8-(3,5-Difluoro-4-(morpholinomethyl)phenyl)quinoxalin-2-yl)-1H-pyrazol-1-yl)piperidin-1-yl)-3-oxopropoxy)ethoxy)ethyl)amino)-2-(2,6-dioxopiperidin-3-yl)isoindoline-1,3-dione] was tested, and the IC50 was greater than 10000 nM. `Cn1c(=O)n(C2CCC(=O)NC2=O)c2ccc(NCCCCCCC(=O)N3CCN(c4ccc(Nc5nc6cccc(-c7ccc(S(C)(=O)=O)cc7)n6n5)cc4)CC3)cc21` (stereo not drawn) [JA-293, 3-(3-Methyl-5-((7-(4-(4-((5-(4-(methylsulfonyl)phenyl)-[1,2,4]triazolo[1,5-a]pyridin-2-yl)amino)phenyl)piperazin-1-yl)-7-oxoheptyl)amino)-2-oxo-2,3-dihydro-1H-benzo[d]imidazol-1-yl)piperidine-2,6-dione] gave an IC50 greater than 500 nM. `Cn1c(=O)n(C2CCC(=O)NC2=O)c2ccc(NCCCCC(=O)N3CCN(c4ccc(Nc5nc6cccc(-c7ccc(S(C)(=O)=O)cc7)n6n5)cc4)CC3)cc21` (stereo not drawn) [JA-291, 3-(3-Methyl-5-((5-(4-(4-((5-(4-(methylsulfonyl)phenyl)-[1,2,4]triazolo[1,5-a]pyridin-2-yl)amino)phenyl)piperazin-1-yl)-5-oxopentyl)amino)-2-oxo-2,3-dihydro-1H-benzo[d]imidazol-1-yl)piperidine-2,6-dione] was tested, and the IC50 was greater than 500 nM. Work on `CS(=O)(=O)c1ccc(-c2cccc3nc(Nc4ccc(N5CCN(C(=O)CCOCCOCCOCCOCCNc6ccc7c(c6)C(=O)N(C6CCC(=O)NC6=O)C7=O)CC5)cc4)nn23)cc1` (stereo not drawn) [JA-197, 2-(2,6-Dioxopiperidin-3-yl)-5-((15-(4-(4-((5-(4-(methylsulfonyl)phenyl)-[1,2,4]triazolo[1,5-a]pyridin-2-yl)amino)phenyl)piperazin-1-yl)-15-oxo-3,6,9,12-tetraoxapentadecyl)amino)isoindoline-1,3-dione] yielded an IC50 of 5550 nM. Molecule `Cc1cnc(Nc2ccc(N3CCN(C(=O)CCCCCCNc4ccc5c(c4)C(=O)N(C4CCC(=O)NC4=O)C5=O)CC3)cc2)nc1Nc1cccc(S(=O)(=O)NC(C)(C)C)c1` (stereo not drawn) [JA-230, N-(tert-butyl)-3-((2-((4-(4-(7-((2-(2,6-dioxopiperidin-3-yl)-1,3-dioxoisoindolin-5-yl)amino)heptanoyl)piperazin-1-yl)phenyl)amino)-5-methylpyrimidin-4-yl)amino)benzenesulfonamide] has an IC50 greater than 10000 nM. With `Cc1cnc(Nc2ccc(N3CCN(C(=O)CCCCNc4cccc5c4C(=O)N(C4CCC(=O)NC4=O)C5=O)CC3)cc2)nc1Nc1cccc(S(=O)(=O)NC(C)(C)C)c1` (stereo not drawn) [JA-107, N-(tert-Butyl)-3-((2-((4-(4-(5-((2-(2,6-dioxopiperidin-3-yl)-1,3-dioxoisoindolin-4-yl)amino)pentanoyl)piperazin-1-yl)phenyl)amino)-5-methylpyrimidin-4-yl)amino)benzenesulfonamide] the IC50 was 2270 nM. `Cc1ncsc1-c1ccc(CNC(=O)[C@@H]2C[C@@H](O)CN2C(=O)[C@@H](NC(=O)COCC(=O)N2CCN(c3ccc(Nc4nc5cccc(-c6ccc(S(C)(=O)=O)cc6)n5n4)cc3)CC2)C(C)(C)C)cc1` [JA-072, (2S,4R)-1-((S)-3,3-Dimethyl-2-(2-(2-(4-(4-((5-(4-(methylsulfonyl)phenyl)-[1,2,4]triazolo[1,5-a]pyridin-2-yl)amino)phenyl)piperazin-1-yl)-2-oxoethoxy)acetamido)butanoyl)-4-hydroxy-N-(4-(4-methylthiazol-5-yl)benzyl)pyrrolidine-2-carboxamide] showed an IC50 of 6460 nM. In the case of `Cc1ncsc1-c1ccc(CNC(=O)[C@@H]2C[C@@H](O)CN2C(=O)[C@@H](NC(=O)CCCCCCCCCC(=O)N2CCC(n3cc(-c4cnc5cccc(-c6cc(F)c(CN7CCOCC7)c(F)c6)c5n4)cn3)CC2)C(C)(C)C)cc1` [JA-059, (2S,4R)-1-[(2S)-2-[[11-[4-[4-[8-[3,5-Difluoro-4-(morpholinomethyl)phenyl]quinoxalin-2-yl]pyrazol-1-yl]-1-piperidyl]-11-oxo-undecanoyl]amino]-3,3-dimethyl-butanoyl]-4-hydroxy-N-[[4-(4-methylthiazol-5-yl)phenyl]methyl]pyrrolidine-2-carboxamide], the IC50 is reported as greater than 10000 nM.
